Patent publication US20100151520A1, “Translation Enhancer Elements Of Genes Encoding Human Tau Protein and Human Alpha-Synuclein Protein” (priority 2004, published 2010)
“Also recorded” adds a separate entry of the source.

Tests used:
α-synuclein protein = test: Western blot of α-synuclein protein levels in treated SY5Y neuroblastoma cells; assay type: cell-based, human
α-synuclein mRNA = test: Quantitative real-time PCR of α-synuclein mRNA levels in SY5Y cells; assay type: cell-based, human; details: 6 or 16 hours, relative to beta actin (FIG. 4)
Method: (§1) Quantitative real-time PCR (qRTPCR) was used to measure steady-state mRNA levels for α-synuclein mRNA relative to […] in response to iron. Neuroblastoma (SY5Y) cells were treated with iron or desferrioxamine (DFO) for 6 hours or 16 hours and control cells were left untreated (U) for the same indicated times (i.e., 6 hours untreated=U6, and 16 hours untreated=U16). TfR mRNA was the experimental positive control mRNA.
(§2) The qRTPCR was conducted as follows. Total RNA was isolated from iron and desferrioxamine treated neuroblastoma cell line, SH-SY5Y according to manufacturers specification (RNAeasy Mini Kit, Qiagen, Valencia, Calif.). The optional on-column DNase digestion with the RNase-Free DNase set (Qiagen) was incorporated into all RNA isolations.
3 μg total RNA was primed with oligo-dT and the Superscript II enzyme according to manufacturer's instructions (Invitrogen, Carlsbad, Calif.) to synthesize […] cDNA. For qRTPCR, primer specificity was initially verified by searching for homology to genomic databases using NCBI BLAST. After completion of qRTPCR, the appropriately sized amplicon were confirmed by agarose gel electrophoresis. […] Fluorescence was measured at the end of each annealing cycle using the ABI Prism 7000 (Applied Biosystems, Foster City, Calif.). Average threshold cycle (Ct) values were measured in the exponential phase of the PCR reaction for each duplicate sample. […] Relative expression of the treated samples was determined by first normalizing against that of the untreated samples (ΔCT^sample−ΔCT^normal=ΔΔCT) and then calculating the fold change (fold change=2^−ΔΔCt).
(§3) Primers used for quantitative real-time PCR were as follows: […]
The details of the annealing temperature are as follows. […] The dsDNA-specific dye SYBR Green I incorporated into the PCR reaction buffer QuantiTech™ SYBR PCR (Qiagen) to allow for quantitative detection of the PCR product in a 25-μl reaction volume. […]

α-synuclein 5′ UTR = test: Luciferase reporter assay, α-synuclein 5′UTR-pGL3 transfected neuroblastoma cells; assay type: cell-based, human; details: 48 hours, luciferase controlled by α-synuclein 5′ UTR
Method: (§4) To determine whether α-synuclein 5′UTR sequences were iron responsive SH-SY5Y transfection experiments were performed using an ASN 5′UTR pGL3 construct compared to pGL3, and control vector in which the luciferase expression was translated in the absence of the α-synuclein 5′UTR.
A 46 base sequence (SEQ ID NO:21) of the α-synuclein 5′ UTR was synthesized with a HindIII site at the 5′ end and a Nco I site at the 3′ end (Integrated DNA Technologies, Coralville, Iowa) and then ligated into a pGL-3 vector (Promega, Madison Wis.) immediately in front of the luciferase gene, under the control of a SV40 promotor. Wild-type pGL3 or pGL3 containing the α-synuclein 5′ UTR insert upstream of the luciferase promotor (α-synuclein 5′UTR-pGL3) were used. Expression of green fluorescent protein (GFP) within the pGL3 vector, controlled by a SV40 late poly(A) signal was used to control for transfection efficiency. 8×10^5 neuroblastoma HYSY cells were seeded for 24 hours in 60-mm^2 dishes with 5 ml Dulbeccco's modified medium containing 10% fetal bovine serum. For transfection, cells were first rinsed 3× in Phosphate Buffered Saline (PBS) and then treated with 5 μg of purified DNA combined with PolyFect transfection reagent and growth medium, according to the manufacturer's specifications (Qiagen). After a 24 hours incubation at 37° and 5% CO2 to maximize transfection efficiency, cells were washed in PBS 3×, trypsonized and plated to 95% confluence in 96-well plates. Cells were allowed to seed in the 96-well plates for 12 hours in Dulbecco's modified medium containing 10% fetal bovine serum and ampicillin, to select for cells containing the plasmid, which contained an ampicillin resistance gene. […] Treatment medium was prepared fresh the day of experiment and incubated for 1 hour at 37° prior to the experiment to maximize solubility. […] Cells were lysed with 1× Bright-glo luciferase assay buffer and the lysates combined with bright-glo luciferase assay substrate warmed to 37°, according to the specifications of the manufacturer (Promega, Madison, Wis.). All experiments were performed in triplicate. Automated luciferase assays were performed with a Wallac 1420 multi-label counter. GFP expression was quantified at 489/509 nm with the same Wallac 1420 counter to control for transfection efficiency.

[1] = test system: Transferrin receptor mRNA (TfR mRNA); test: Quantitative real-time PCR of transferrin receptor mRNA (positive control) in SY5Y cells; assay type: cell-based
Method: as §1, §2
3 μg total RNA was primed with oligo-dT and the Superscript II enzyme according to manufacturer's instructions (Invitrogen, Carlsbad, Calif.) to synthesize […] cDNA. For qRTPCR, primer specificity was initially verified by searching for homology to genomic databases using NCBI BLAST. After completion of qRTPCR, the appropriately sized amplicon were confirmed by agarose gel electrophoresis. All reactions were performed in duplicate in a 50 μl volume consisting of 3 μl cDNA, […] each of the forward and reverse primer of β-Actin and […] each of the forward and reverse primer of all other primer pairs, and the fluorescent SYBR Green I dye. Fluorescence was measured at the end of each annealing cycle using the ABI Prism 7000 (Applied Biosystems, Foster City, Calif.). Average threshold cycle (Ct) values were measured in the exponential phase of the PCR reaction for each duplicate sample. Average Ct values were normalized against that β-Actin amplified in parallel from the same sample. Relative expression of the treated samples was determined by first normalizing against that of the untreated samples (ΔCT^sample−ΔCT^normal=ΔΔCT) and then calculating the fold change (fold change=2^−ΔΔCt).
as §3
The details of the annealing temperature are as follows. […] For real-time PCR, the cDNA was amplified using an ABI PRISM 7000 Sequence Detection System (PE Applied Biosystems, Foster City, Calif.). The dsDNA-specific dye SYBR Green I incorporated into the PCR reaction buffer QuantiTech™ SYBR PCR (Qiagen) to allow for quantitative detection of the PCR product in a 25-μl reaction volume. The temperature profile of the reaction was 95° C. for 10 min, 40 cycles of denaturation at 95° C. for 15 sec, annealing at 60° C. for 30 sec, and extension at 72° C. for 30 sec. An internal housekeeping gene control, β-actin, was used to normalize differences in RNA isolation, RNA degradation, and the efficiencies of the RT. The size of the PCR product was first verified on a 1.5% agarose gel, followed by melting curve analysis.
(§5) Neuroblastoma cells (SY5Y) were treated with each agent for 6 hours or 16 hours and control cells were left untreated (U) for the same indicated times (i.e., 6 hours untreated=U6, and 16 hours untreated=U16).

wild-type pGL3 vector = test: Luciferase reporter assay, wild-type pGL3 control vector; assay type: cell-based
Method: as §4
A 46 base sequence (SEQ ID NO:21) of the α-synuclein 5′ UTR was synthesized with a HindIII site at the 5′ end and a Nco I site at the 3′ end (Integrated DNA Technologies, Coralville, Iowa) and then ligated into a pGL-3 vector (Promega, Madison Wis.) immediately in front of the luciferase gene, under the control of a SV40 promotor. Wild-type pGL3 or pGL3 containing the α-synuclein 5′ UTR insert upstream of the luciferase promotor (α-synuclein 5′UTR-pGL3) were used. Expression of green fluorescent protein (GFP) within the pGL3 vector, controlled by a SV40 late poly(A) signal was used to control for transfection efficiency. 8×10^5 neuroblastoma HYSY cells were seeded for 24 hours in 60-mm^2 dishes with 5 ml Dulbeccco's modified medium containing 10% fetal bovine serum. […] GFP expression was quantified at 489/509 nm with the same Wallac 1420 counter to control for transfection efficiency.

Tau mRNA = test: Quantitative real-time PCR of Tau mRNA levels in SY5Y cells; assay type: cell-based, human; details: for Tau mRNA levels: 6 or 16 hours (100 μM DFO where stated), FIG. 5
Method: Quantitative real-time PCR (QRTPCR) was performed on RNA extracted from iron/zinc and desferrioxamine treated mRNA. Methods for QRTPCR were as described for priming an α-synuclein amplicon (see Example 1) except that oligonucleotides were (NM016835Rev) 5′[…]3′ (SEQ ID NO:15) and (NM 016835For) 5′[…]3′ (SEQ ID NO:16).
as §5

[2] = target: T1, Iron-Regulatory Protein-1 (IRP-1) binding to α-synuclein mRNA (Homo sapiens, UniProt P21399); test: Immunoprecipitation RT-PCR of α-synuclein mRNA bound to IRP-1 in SH-SY5Y lysates; assay type: cell-based; details: iron-treated SH-SY5Y cells, FIG. 6B
T1 construct: endogenous in cells; host or cells: SH-SY5Y neuroblastoma cells (lysates after treatment of the cells)
T1 sequence (P21399 1-889): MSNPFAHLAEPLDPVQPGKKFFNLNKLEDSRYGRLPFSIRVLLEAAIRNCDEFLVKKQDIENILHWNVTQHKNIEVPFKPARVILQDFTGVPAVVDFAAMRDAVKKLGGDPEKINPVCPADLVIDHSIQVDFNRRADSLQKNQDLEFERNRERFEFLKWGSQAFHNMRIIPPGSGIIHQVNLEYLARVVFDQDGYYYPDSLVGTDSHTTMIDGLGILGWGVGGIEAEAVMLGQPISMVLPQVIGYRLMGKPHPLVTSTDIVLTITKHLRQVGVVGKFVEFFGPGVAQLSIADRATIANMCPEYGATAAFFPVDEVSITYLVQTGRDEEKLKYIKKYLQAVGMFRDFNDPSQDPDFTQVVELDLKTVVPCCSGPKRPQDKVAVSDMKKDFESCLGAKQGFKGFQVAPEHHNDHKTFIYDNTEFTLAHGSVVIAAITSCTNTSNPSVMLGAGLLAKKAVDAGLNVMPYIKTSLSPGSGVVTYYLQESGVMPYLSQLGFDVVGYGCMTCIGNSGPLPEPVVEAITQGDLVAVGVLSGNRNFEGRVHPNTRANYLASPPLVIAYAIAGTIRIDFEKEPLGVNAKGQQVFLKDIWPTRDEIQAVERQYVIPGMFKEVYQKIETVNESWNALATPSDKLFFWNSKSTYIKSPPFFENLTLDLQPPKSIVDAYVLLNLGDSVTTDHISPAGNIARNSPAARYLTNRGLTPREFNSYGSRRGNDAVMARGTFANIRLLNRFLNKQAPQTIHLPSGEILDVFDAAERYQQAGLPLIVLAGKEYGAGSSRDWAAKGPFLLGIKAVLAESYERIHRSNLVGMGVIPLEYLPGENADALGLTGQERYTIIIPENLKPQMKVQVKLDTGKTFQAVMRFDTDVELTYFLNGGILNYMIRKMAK
Method: Neuroblastoma cells were treated with (i) DFO ([…]), (ii) feTf (10 μM) or remained untreated. Cells were lysed in RIPA buffer, and cytosolic extracts were immunoprecipitated with antibody to IRP-1 and IRP-2. After washing with Fe-beads the bound mRNA or superatant RNA was reverse transcribed and the mRNAs attached to the IRP-1/IRP—2 were identified by immunoprecipitation of RNA that selectively interacted with IRP-1/IRP-2 (method of Thomson, A. M., et al., Biol. Chem. 2005 Aug. 26; 280(34):30032-45. Epub 2005 Jun. 20.
We tested whether α-synuclein mRNA interacted with IRP-1 or IRP-2 by use of an RNA co-immunoprecipitation technique shown in FIG. 6. In this IPRT-PCR experiment α-synuclein mRNA was selectively co-immunoprecipitated with IRP-1 from neuroblastoma lysates (the presence of ASN mRNA was detected by PCR of cDNA reverse transcribed from mRNA immunopreciptated with IRP-1 on washed beads according to standard methods (Thomson, A. M., et al., (2005) J Biol Chem 280, 30032-30045). Ferritin mRNA was selectively immunopreciptated with both IRP-1 and IRP-2, whereas α-synuclein mRNA was selectively bound to IRP-1, not IRP-2. This technique was semi qualitative PCR, though the amount of α-synuclein mRNA attached IRP-1 was iron dependent in the experiment shown in FIG. 6B. […]

CC(=O)N(O)CCCCCNC(=O)CCC(=O)N(O)CCCCCNC(=O)CCC(=O)N(O)CCCCCN [DFO, desferrioxamine]
steady-state levels of α-synuclein protein (α-synuclein protein; 100 μM DFO (16 h)): reduced
intracellular levels of α-synuclein protein (α-synuclein protein; short-term (6 h) and long-term (3 d) desferrioxamine treatment): dramatic reduction
α-synuclein mRNA levels (α-synuclein mRNA): unchanged; also recorded: not modulated
α-synuclein mRNA levels (α-synuclein mRNA; listed as desferrioxamine): unchanged
decrease in luminescence (α-synuclein 5′ UTR; 50 mM DFO): 25%
decrease in luminescence (α-synuclein 5′ UTR; 100 mM DFO, p<0.001): 50%
TfR mRNA up-regulation in response to DFO ([1]; DFO (100 μM where stated), FIG. 4, relative to beta actin): 3 fold
TfR mRNA up-regulation in response to DFO ([1]; FIG. 5 (Tau experiment), 16 hours DFO where stated): 4.5 fold
effect on luciferase activity (wild-type pGL3 vector): no effect
Tau mRNA levels (Tau mRNA): up-regulated; also recorded: dramatically changed
increase in induction for Tau mRNA (Tau mRNA; 16 hours treatment with DFO, relative to beta actin): 5 fold

ferric ammonium citrate [FAC]
α-synuclein protein levels (monomer, 15 kDa) (α-synuclein protein; 100 μM FAC, 6 hour and 3 days, Western blot (FIG. 3)): increase
α-synuclein mRNA levels (α-synuclein mRNA): did not change as significantly although it was reduced; also recorded: not modulated
increase in luminescence (α-synuclein 5′ UTR; 10 mg/ml FAC): 5 fold
increase in luminescence (α-synuclein 5′ UTR; 100 mg/ml FAC, p<0.001): 20 fold
TfR mRNA reduction by FAC ([1]; FIG. 5 (Tau experiment)): 4 fold
effect on luciferase activity (wild-type pGL3 vector): no effect
Tau mRNA levels (Tau mRNA): down regulated

iron
IRP-1 binding (to α-synuclein mRNA) [2]: reduced
fold reduction for TfR mRNA ([1]; 400 micromolar iron (16 h), FIG. 5): 0.45 fold
fold reduction for Tau mRNA (Tau mRNA; 400 micromolar iron (16 h)): 0.66 fold

zinc
TfR mRNA responsiveness to zinc (control for iron specificity) ([1]; FIG. 5): surprisingly responsive
